According to ChEMBL document CHEMBL1150553, “Diaryl phosphate derivatives act as pro-drugs of AZT with reduced cytotoxicity compared to the parent nucleoside” (Bioorg Med Chem Lett, 1994):

Tests used:
[1] = tested on: MT4; test: In vitro inhibitory activity against replication of HIV-2 in human lymphocyte MT-4 cells; format: functional, cell-based
[2] = tested on: CCRF-CEM; test: In vitro inhibitory activity against replication of HIV-1 in human lymphocyte CEM cells; format: functional, cell-based
[3] = tested on: CCRF-CEM; test: In vitro inhibitory activity against replication of HIV-2 in human lymphocyte CEM cells; format: functional, cell-based
[4] = tested on: CCRF-CEM; test: In vitro inhibitory activity against replication of HIV-2 in human lymphocyte thymidine kinase deficient CEM cells; format: functional, cell-based
[5] = tested on: MT4; test: In vitro inhibitory activity against replication of HIV-1 in human lymphocyte MT-4 cells; format: functional, cell-based
[6] = tested on: MT4; test: Cytotoxicity against human lymphocyte MT-4 cells; format: functional

Row | Compound | EC50 [1] | EC50 [2] | EC50 [3] | EC50 [4] | EC50 [5] | CC50 [6]
1 | Cc1cn(C2CC(N=[N+]=[N-])C(COP(=O)(Oc3cccc([N+](=O)[O-])c3)Oc3cccc([N+](=O)[O-])c3)O2)c(=O)[nH]c1=O (configuration not stated) | 3.1 nM | 3.8 nM | 3.8 nM | 85000 nM | 2.5 nM | 36000 nM
2 | Cc1cn([C@H]2C[C@H](N=[N+]=[N-])[C@@H](CO)O2)c(=O)[nH]c1=O [ZIDOVUDINE] |  |  | 3.5 nM | > 100000 nM | 2.5 nM | 6000 nM
3 | Cc1cn(C2CC(N=[N+]=[N-])C(COP(=O)(Oc3ccc([N+](=O)[O-])cc3)Oc3ccc([N+](=O)[O-])cc3)O2)c(=O)[nH]c1=O (configuration not stated) | 10 nM | 9 nM | 15 nM | 50000 nM | 13 nM | 50000 nM
4 | Cc1cn(C2CC(N=[N+]=[N-])C(COP(=O)(Oc3ccccc3[N+](=O)[O-])Oc3ccccc3[N+](=O)[O-])O2)c(=O)[nH]c1=O (configuration not stated) | 14 nM | 5.3 nM | 6.2 nM | > 100000 nM | 12.1 nM | 42000 nM
